Measurements taken from patent US11278602B2, “Medicine for Covid-19 and treatment” (Therapeutica Borealis Oy, priority 2020, dated 2022).

Columns and labels:
[1] = pKa / protonation state of weak base; format: physicochemical; details: per the Henderson-Hasselbalch equation
Text: Nicotine is also known to be a weak base, pH 8.5. It has been shown in earlier in vitro studies that it could inhibit receptor mediated endosytosis. Due to the fact that it is a weak base it could penetrate cell membrane especially at pH near its isoelectric point and thus it may also effect glycosylation at Golgi compartment.

[2] = components of the nasal spray; cited from earlier work

Molecule | deprotonated at physiological pH [1] | solubility in water [2]
CCN(CC)CCCC(C)Nc1ccnc2cc(Cl)ccc12 (stereo not shown) [chloroquine] | about 10% | –
CCN(CCO)CCCC(C)Nc1ccnc2cc(Cl)ccc12 (stereo not shown) [Hydroxychloroquine] | – | at least 200 mg/mL
Ivermectin | – | 50 mg/mL
Aprotinin | – | > 10 mg/mL
